The source of these data is US9926297B2, “Bicyclic AZA compounds as muscarinic M1 receptor and/or M4 receptor agonists” (Heptares Therapeutics Limited, priority 2014, dated 2018).

Each structure is given as a SMILES string.

In experiment [1] the target is human muscarinic M3 receptor (Homo sapiens, UniProt P20309). In words: Alphascreen Surefire phospho-ERK1/2 functional assay, M3. To be noted: for Emax: CHO, read-out: % Emax cf. ACh, M3, CHO cells stably expressing human M3, relative to ACh; for EC50: pEC50 M3, CHO cells stably expressing human M3, phospho-ERK1/2, * = variable results.
Protocol: (§1) CHO cells stably expressing the human muscarinic M1, M2, M3 or M4 receptor were plated (25K/well) onto 96-well tissue culture plates in MEM-alpha+10% dialysed FBS. Once adhered, cells were serum-starved overnight. Agonist stimulation was performed by the addition of 5 μL agonist to the cells for 5 min (37° C.). Media was removed and 50 μL of lysis buffer added. After 15 min, a 4 μL sample was transferred to 384-well plate and 7 μL of detection mixture added. Plates were incubated for 2 h with gentle agitation in the dark and then read on a PHERAstar plate reader.
(§2) pEC50 and Emax figures were calculated from the resulting data for each receptor subtype.
In experiment [2] the target is T1, human muscarinic M1 receptor (Homo sapiens, UniProt P11229).
T1 sequence (P11229 1-460): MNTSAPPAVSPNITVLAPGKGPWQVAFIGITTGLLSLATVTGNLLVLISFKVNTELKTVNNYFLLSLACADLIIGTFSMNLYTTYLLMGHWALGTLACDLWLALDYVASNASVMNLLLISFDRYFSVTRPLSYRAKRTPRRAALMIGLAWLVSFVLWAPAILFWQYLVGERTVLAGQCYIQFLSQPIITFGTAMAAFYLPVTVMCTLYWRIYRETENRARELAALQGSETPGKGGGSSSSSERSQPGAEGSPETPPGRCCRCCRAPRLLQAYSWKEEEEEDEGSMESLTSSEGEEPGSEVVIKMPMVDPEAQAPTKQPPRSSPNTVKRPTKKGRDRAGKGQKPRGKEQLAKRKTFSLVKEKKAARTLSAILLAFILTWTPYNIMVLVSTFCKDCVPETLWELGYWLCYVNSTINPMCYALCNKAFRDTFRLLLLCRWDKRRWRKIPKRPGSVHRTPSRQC
In words: Alphascreen Surefire phospho-ERK1/2 functional assay, M1. The format is cell-based. Particulars: for EC50: CHO cells stably expressing human M1, phospho-ERK1/2, * = variable results, read-out: pEC50 M1 (converted); for Emax: CHO, read-out: % Emax cf. ACh, M1, CHO cells stably expressing human M1, relative to ACh.

Experiment [3] deals with T2, human muscarinic M2 receptor (Homo sapiens, UniProt P08172).
T2 sequence (P08172 1-466): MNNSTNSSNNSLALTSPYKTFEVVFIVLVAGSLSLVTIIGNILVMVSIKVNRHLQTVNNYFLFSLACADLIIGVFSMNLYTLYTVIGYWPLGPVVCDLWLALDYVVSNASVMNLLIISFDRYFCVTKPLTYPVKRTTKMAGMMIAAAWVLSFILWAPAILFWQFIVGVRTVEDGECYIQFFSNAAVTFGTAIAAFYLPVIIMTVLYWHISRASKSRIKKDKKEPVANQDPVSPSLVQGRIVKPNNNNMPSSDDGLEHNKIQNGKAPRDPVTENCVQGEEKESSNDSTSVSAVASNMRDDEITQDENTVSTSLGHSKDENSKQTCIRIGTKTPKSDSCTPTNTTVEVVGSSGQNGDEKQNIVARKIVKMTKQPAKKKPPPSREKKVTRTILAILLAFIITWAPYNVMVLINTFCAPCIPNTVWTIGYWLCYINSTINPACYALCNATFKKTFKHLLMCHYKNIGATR
In words: Alphascreen Surefire phospho-ERK1/2 functional assay, M2. To be noted: for Emax: CHO, read-out: % Emax cf. ACh, M2, CHO cells stably expressing human M2, relative to ACh.
Protocol: as §1, §2

The target in experiment [4] is T3, human muscarinic M4 receptor (Homo sapiens, UniProt P08173).
T3 construct: expressed in transfected cells
T3 sequence (P08173 1-479): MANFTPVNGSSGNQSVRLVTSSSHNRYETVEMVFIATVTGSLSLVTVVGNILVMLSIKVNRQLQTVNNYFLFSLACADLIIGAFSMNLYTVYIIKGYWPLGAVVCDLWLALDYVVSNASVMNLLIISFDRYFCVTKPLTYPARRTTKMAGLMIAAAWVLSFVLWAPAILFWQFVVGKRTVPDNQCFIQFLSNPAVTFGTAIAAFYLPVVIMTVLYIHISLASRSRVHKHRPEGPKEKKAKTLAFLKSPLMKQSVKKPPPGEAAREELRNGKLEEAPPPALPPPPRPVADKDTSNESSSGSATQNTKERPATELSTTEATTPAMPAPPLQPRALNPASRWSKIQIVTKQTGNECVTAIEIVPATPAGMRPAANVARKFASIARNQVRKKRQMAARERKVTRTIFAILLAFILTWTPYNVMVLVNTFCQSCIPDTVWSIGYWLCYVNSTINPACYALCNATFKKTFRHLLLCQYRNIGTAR
In words: Alphascreen Surefire phospho-ERK1/2 functional assay, M4. Format: cell-based. To be noted: for EC50: CHO cells stably expressing human M4, phospho-ERK1/2, * = variable results, read-out: pEC50 M4 (converted); for Emax: CHO, read-out: % Emax cf. ACh, M4, CHO cells stably expressing human M4, relative to ACh.

Chain of human muscarinic M3 receptor (P20309 whole entry): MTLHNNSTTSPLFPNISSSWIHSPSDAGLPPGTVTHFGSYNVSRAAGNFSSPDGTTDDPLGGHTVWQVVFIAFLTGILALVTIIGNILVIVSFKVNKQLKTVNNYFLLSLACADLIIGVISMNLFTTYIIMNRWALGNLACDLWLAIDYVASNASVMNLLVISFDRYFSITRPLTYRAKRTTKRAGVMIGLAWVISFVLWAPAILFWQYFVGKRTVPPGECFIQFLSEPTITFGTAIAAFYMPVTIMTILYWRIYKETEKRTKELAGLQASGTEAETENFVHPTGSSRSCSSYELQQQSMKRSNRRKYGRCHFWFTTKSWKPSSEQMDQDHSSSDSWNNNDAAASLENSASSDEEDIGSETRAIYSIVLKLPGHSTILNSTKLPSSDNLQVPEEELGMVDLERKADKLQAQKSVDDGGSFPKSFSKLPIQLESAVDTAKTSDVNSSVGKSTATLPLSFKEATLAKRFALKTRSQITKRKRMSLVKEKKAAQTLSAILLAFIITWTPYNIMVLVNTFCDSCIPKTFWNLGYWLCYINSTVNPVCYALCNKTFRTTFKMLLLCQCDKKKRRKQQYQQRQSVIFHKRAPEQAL

As to `COC(=O)N1CCC2(CC(N3CCC(c4c(C)cnn4C)CC3)C2)C1` (single isomer, unassigned) [1-57 Isomer 2, methyl 2-[4-(1,4-dimethyl-1H-pyrazol-5-yl)piperidin-1-yl]-6-azaspiro[3.4]octane-6-carboxylate], the maximal effect (Emax) in experiment [1] stood at 7%; in experiment [2] it was 63%; in experiment [3], 7%; in experiment [4], 69%. Besides, the EC50 is over 20000 nM in experiment [1], 2000 nM in experiment [2], over 20000 nM in experiment [3] and 126 nM in experiment [4].

For the molecule `CCOC(=O)N1CCC2(CC(N3CCC(c4c(C)cnn4C)CC3)C2)C1` (single isomer, unassigned) [1-58 Isomer 2, ethyl 2-[4-(1,4-dimethyl-1H-pyrazol-5-yl)piperidin-1-yl]-6-azaspiro[3.4]octane-6-carboxylate], the Emax in experiment [1] was found to be 2%; in experiment [2], 55%; in experiment [3], 13%; in experiment [4], 93%. Moreover, the EC50 in experiment [1] was over 20000 nM; in experiment [2], 794 nM; in experiment [3], over 20000 nM; in experiment [4], 31.6 nM.

On to `CCOC(=O)N1CCC2(CC(N3CCC(n4nccn4)CC3)C2)C1` (single isomer, unassigned) [1-61 Isomer 2, ethyl 2-[4-(2H-1,2,3-triazol-2-yl)piperidin-1-yl]-6-azaspiro[3.4]octane-6-carboxylate], for which the Emax in experiment [1] amounted to 2%; in experiment [2], 66%; in experiment [3], 1%; in experiment [4], 97%. Besides, the EC50 was over 20000 nM in experiment [1], 316 nM in experiment [2], over 20000 nM in experiment [3] and 25.1 nM in experiment [4].

For `CCOC(=O)N1CCC2(CC(N3CCC(C4CCCN4)CC3)C2)C1` (single isomer, unassigned) [2-1 Isomer 2, ethyl 2-[4-(pyrrolidin-2-yl)piperidin-1-yl]-6-azaspiro[3.4]octane-6-carboxylate], the EC50 in experiment [1] was over 20000 nM; in experiment [2] it was over 20000 nM; in experiment [3], over 20000 nM; in experiment [4], 316 nM. The Emax in experiment [2] came to 6%; in experiment [4], 63%.

In the case of `CCOC(=O)N1CCC2(CC(N3CCC(C4CCCN4C=O)CC3)C2)C1` (single isomer, unassigned) [2-2 Isomer 2, ethyl 2-[4-(1-formylpyrrolidin-2-yl)piperidin-1-yl]-6-azaspiro[3.4]octane-6-carboxylate], the Emax stood at 16% in experiment [1], 39% in experiment [2], 53% in experiment [3] and 79% in experiment [4]. The EC50 in experiment [1] was over 20000 nM; in experiment [2] it was 794 nM; in experiment [3], over 20000 nM; in experiment [4], 63.1 nM.

Regarding `CCOC(=O)N1CCC2(CC(N3CCC(C4CCCN4C(C)=O)CC3)C2)C1` (single isomer, unassigned) [2-3 Isomer 2, ethyl 2-[4-(1-acetylpyrrolidin-2-yl)piperidin-1-yl]-6-azaspiro[3.4]octane-6-carboxylate], the maximum response (Emax) is 4% in experiment [1], 32% in experiment [2], 14% in experiment [3] and 89% in experiment [4]. Besides, the EC50 is over 20000 nM in experiment [1], 10000 nM in experiment [2], over 20000 nM in experiment [3] and 50.1 nM in experiment [4].

On to `CCOC(=O)N1CCC2(CC(N3CCC(C4CCCN4C(=O)C(F)(F)F)CC3)C2)C1` (single isomer, unassigned) [2-4 Isomer 2, ethyl 2-{4-[1-(trifluoroacetyl)pyrrolidin-2-yl]piperidin-1-yl}-6-azaspiro[3.4]octane-6-carboxylate], for which the maximal response (Emax) in experiment [1] was 3%; in experiment [2] it was 102%; in experiment [3], 2%; in experiment [4], 110%. The EC50 in experiment [1] is over 20000 nM; in experiment [2], 316 nM; in experiment [3] it was over 20000 nM; in experiment [4], 50.1 nM.

`CCOC(=O)N1CCC2(CC(N3CCC(C4CCCN4C(=O)CC)CC3)C2)C1` (single isomer, unassigned) [2-6 Isomer 2, ethyl 2-[4-(1-propanoylpyrrolidin-2-yl)piperidin-1-yl]-6-azaspiro[3.4]octane-6-carboxylate]: the maximum response (Emax) amounted to 16% in experiment [1], 57% in experiment [2], 30% in experiment [3] and 132% in experiment [4]. Also, the EC50 is over 20000 nM in experiment [1], 3160 nM in experiment [2], over 20000 nM in experiment [3] and 15.8 nM in experiment [4].

`CCOC(=O)N1CCC2(CC(N3CCC([C@@H]4CCCN4C(=O)CC)CC3)C2)C1` (single isomer, unassigned) [2-7 Isomer 2]: the maximum response (Emax) amounted to 27% in experiment [1], 41% in experiment [2], 13% in experiment [3] and 100% in experiment [4]. Further, the EC50 in experiment [1] is 7940 nM; in experiment [2], 794 nM; in experiment [3], over 20000 nM; in experiment [4], 12.6 nM.

On to `CCOC(=O)N1CCC2(CC(N3CCC([C@@H]4CCCN4C(=O)C4CC4)CC3)C2)C1` (single isomer, unassigned) [2-8 Isomer 2], for which the maximum response (Emax) in experiment [1] is 4%; in experiment [2], 36%; in experiment [3], 3%; in experiment [4], 86%. Moreover, the EC50 in experiment [1] was over 20000 nM; in experiment [2], 631 nM; in experiment [3] it was over 20000 nM; in experiment [4], 15.8 nM.

Regarding `CCOC(=O)N1CCC2(CC(N3CCC([C@@H]4CCCN4C(=O)C4CCC4)CC3)C2)C1` (single isomer, unassigned) [2-9 Isomer 2], the Emax in experiment [1] is 6%; in experiment [2], 43%; in experiment [3], 4%; in experiment [4], 104%. Moreover, the EC50 in experiment [1] was over 20000 nM; in experiment [2], 1000 nM; in experiment [3], over 20000 nM; in experiment [4], 10 nM.

Take `CCOC(=O)N1CCC2(CC(N3CCC(C4CCCN4C(=O)OC)CC3)C2)C1` (single isomer, unassigned) [2-11 Isomer 2, ethyl 2-{4-[1-(methoxycarbonyl)pyrrolidin-2-yl]piperidin-1-yl}-6-azaspiro[3.4]octane-6-carboxylate]: the Emax in experiment [1] came out at 7%; in experiment [2] it was 39%; in experiment [3], 7%; in experiment [4], 100%. In addition, the EC50 in experiment [1] is over 20000 nM; in experiment [3] it was over 20000 nM; in experiment [4] it was 25.1 nM.

With `CCOC(=O)N1CCC2(CC(N3CCC([C@@H]4CCCN4C(=O)OC)CC3)C2)C1` (single isomer, unassigned) [2-12 Isomer 2], the Emax in experiment [1] is 6%; in experiment [2], 9%; in experiment [3], 9%; in experiment [4], 57%. Besides, the EC50 in experiment [1] was over 20000 nM; in experiment [2], over 20000 nM; in experiment [3] it was over 20000 nM; in experiment [4] it was 10 nM.
